# Values quoted from earlier work as cited in US9375001B1, “Granular fly bait” (Wellmark International, priority 2012, dated 2016).
# Where two headings read alike, the source gives them in different places.
structure (smiles),measurement,setting,value
OC[C@H]1O[C@@](CO)(O[C@H]2O[C@H](CO)[C@@H](O)[C@H](O)[C@H]2O)[C@@H](O)[C@@H]1O [Sucrose],"Solubility of Sucrose in Water, Sucrose/water",50 ° C.,2.59 wt/wt
same,"Solubility of Sucrose in Water, Sucrose/water",55 ° C.,2.73 wt/wt
same,"Solubility of Sucrose in Water, Sucrose/water",60 ° C.,2.89 wt/wt
same,"Solubility of Sucrose in Water, Sucrose/water",65 ° C.,3.06 wt/wt
same,"Solubility of Sucrose in Water, Sucrose/water",70 ° C.,3.25 wt/wt
same,"Solubility of Sucrose in Water, Sucrose/water",75 ° C.,3.46 wt/wt
same,"Solubility of Sucrose in Water, Sucrose/water",80 ° C.,3.69 wt/wt
same,"Solubility of Sucrose in Water, Sucrose/water",85 ° C.,3.94 wt/wt
same,"Solubility of Sucrose in Water, Sucrose/water",90 ° C.,4.20 wt/wt
